Experimental data reported in PubChem BioAssay (NCI).
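48-hour exposure; five concentrations; linearly interpolated endpoints. At the GI50, growth is halved. TGI marks complete inhibition of growth.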

Assays:
Assay in all cases: growth of human tumour cells (NCI), 48 h; in the data active means GI50 below about 0.43 µM; inactive means the rest
[1] = system: T-47D breast
[2] = system: HCT-116 colon
[3] = system: MCF7 breast
[4] = system: OVCAR-3 ovarian
[5] = system: HS 578T breast
[6] = system: RXF 393 renal
[7] = system: NCI-H23 lung
[8] = system: SK-MEL-5 melanoma
[9] = system: IGROV1 ovarian
[10] = system: K-562 leukemia
[11] = system: U251 CNS
[12] = system: SF-268 CNS
[13] = system: SK-OV-3 ovarian
[14] = system: KM12 colon
[15] = system: A549 NSCLC
[16] = system: RPMI-8226 leukemia
[17] = system: UO-31 renal
[18] = system: 786-0 renal
[19] = system: MDA-MB-231 breast
[20] = system: SF-295 CNS
[21] = system: TK-10 renal
[22] = system: UACC-257 melanoma
[23] = system: M14 melanoma
[24] = system: HOP-62 NSCLC
[25] = system: OVCAR-4 ovarian
[26] = system: SF-539 CNS
[27] = system: SK-MEL-28 melanoma
[28] = system: BT-549 breast
[29] = system: NCI/ADR-RES ovarian
[30] = system: DU-145 prostate
[31] = system: SN12C renal
[32] = system: NCI-H460 lung
[33] = system: LOX IMVI melanoma
[34] = system: SNB-75 CNS
[35] = system: SNB-19 CNS
[36] = system: MALME-3M melanoma
[37] = system: NCI-H522 lung
[38] = system: SR leukemia
[39] = system: OVCAR-8 ovarian
[40] = system: PC-3 prostate
[41] = system: HL-60(TB) leukemia
[42] = system: CCRF-CEM leukemia
[43] = system: HT29 colon
[44] = system: NCI-H226 lung
[45] = system: COLO 205 colon
[46] = system: SK-MEL-2 melanoma
[47] = system: ACHN renal
[48] = system: MDA-MB-435
[49] = system: OVCAR-5 ovarian
[50] = system: CAKI-1 renal
[51] = system: HCC-2998 colon
[52] = system: HCT-15 colon
[53] = system: UACC-62 melanoma
[54] = system: SW-620 colon
[55] = system: A498 renal
[56] = system: MOLT-4 leukemia

Cc1onc(-c2ccccc2)c1C(=O)N/N=C/c1cc(Cl)cc(Cl)c1O
26.6 µM: TGI [4]
58.2 µM: TGI [55]
57.8 µM: TGI [1]
58.7 µM: TGI [43]
35.7 µM: TGI [19]
50.7 µM: TGI [13] | TGI [18]
25.1 µM: TGI [38]
12.9 µM: TGI [17]
18.2 µM: TGI [51]
27.4 µM: TGI [36]
34.3 µM: TGI [29]
21.7 µM: TGI [9]
7.32 µM: TGI [41]
55.9 µM: TGI [10]
27.3 µM: TGI [22]
inactive: GI50 [1] 6.31 µM | GI50 [2] 4.11 µM | GI50 [3] 3.18 µM | GI50 [4] 3.82 µM | GI50 [5] 17.8 µM | GI50 [6] 7.72 µM | GI50 [7] 10.6 µM | GI50 [8] 3.47 µM | GI50 [9] 2.92 µM | GI50 [10] 4.58 µM | GI50 [11] 3.19 µM | GI50 [12] 3.44 µM | GI50 [13] 7.82 µM | GI50 [14] 5.54 µM | GI50 [15] 5.07 µM | GI50 [16] 5.61 µM | GI50 [17] 1.83 µM | GI50 [18] 5.01 µM | GI50 [19] 4.27 µM | GI50 [20] 2.05 µM | GI50 [21] 5.01 µM | GI50 [22] 3.47 µM | GI50 [23] 3.74 µM | GI50 [24] 6.04 µM | GI50 [25] 2.07 µM | GI50 [26] 2.65 µM | GI50 [27] 6.51 µM | GI50 [28] 12.1 µM | GI50 [29] 3.76 µM | GI50 [30] 6.72 µM | GI50 [31] 4.58 µM | GI50 [32] 3.6 µM | GI50 [33] 2.93 µM | GI50 [34] 6.75 µM | GI50 [35] 4.12 µM | GI50 [36] 4.03 µM | GI50 [37] 3.67 µM | GI50 [38] 3.74 µM | GI50 [39] 3.59 µM | GI50 [40] 3.93 µM | GI50 [41] 2.61 µM | GI50 [42] 1.48 µM | GI50 [43] 8.63 µM | GI50 [44] 8.47 µM | GI50 [45] 3.84 µM | GI50 [46] 11.5 µM | GI50 [47] 2.67 µM | GI50 [48] 6.39 µM | GI50 [49] 8.65 µM | GI50 [50] 1.84 µM | GI50 [51] 4.13 µM | GI50 [52] 2.05 µM | GI50 [53] 2.16 µM | GI50 [54] 6.81 µM | GI50 [55] 15 µM | GI50 [56] 3.53 µM
32.3 µM: TGI [33]
49.4 µM: TGI [28]
24.2 µM: TGI [45]
14.7 µM: TGI [42]
57.6 µM: TGI [11]
46.3 µM: TGI [23]
22.9 µM: TGI [56]
67.9 µM: TGI [7]
72.7 µM: TGI [44]
56 µM: TGI [46]
49.7 µM: TGI [16]
10.5 µM: TGI [50]
11.3 µM: TGI [20]
60.5 µM: TGI [31]
55.7 µM: TGI [24]
21.1 µM: TGI [8]
32.6 µM: TGI [40]
11.6 µM: TGI [26]
6.83 µM: TGI [53]
> 100 µM: TGI [2] | TGI [3] | TGI [5] | TGI [6] | TGI [12] | TGI [14] | TGI [15] | TGI [21] | TGI [25] | TGI [27] | TGI [30] | TGI [32] | TGI [34] | TGI [35] | TGI [39] | TGI [47] | TGI [48] | TGI [49] | TGI [52] | TGI [54]
33.6 µM: TGI [37]
